In the supplement of paper PMC10307832:

What was measured:
Experiment in all cases: relative viability (nuclei count vs DMSO), 5 days (fraction); higher = more cells survive
UMC-11 = system: UMC-11
How it was run: (§1)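 Values are medians from duplicate plates. Each reflects relative viability, defined as the nuclei count of treated wells over that of vehicle wells. Lung cancer cell lines in 1536-well plates were pin-tool dosed one day after seeding with one drug alone or with a fixed anchor-drug dose plus five library-drug doses (not always all listed) in √10 steps, then fixed, stained and imaged at 4× after 5 days.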

NCI-H1755 = system: NCI-H1755
How it was run: as §1

NCI-H2347 = system: NCI-H2347
How it was run: as §1

NCI-H2228 = system: NCI-H2228
How it was run: as §1

HCC-366 = system: HCC-366
How it was run: as §1

LCLC-103H = system: LCLC-103H
How it was run: as §1

SK-MES-1 = system: SK-MES-1
How it was run: as §1

NCI-H1792 = system: NCI-H1792
How it was run: as §1

NCI-H1993 = system: NCI-H1993
How it was run: as §1

SW 1573 = system: SW 1573
How it was run: as §1

NCI-H650 = system: NCI-H650
How it was run: as §1

NCI-H1975 = system: NCI-H1975
How it was run: as §1

HCC-827 = system: HCC-827
How it was run: as §1

NCI-H23 = system: NCI-H23
How it was run: as §1

RERF-LC-KJ = system: RERF-LC-KJ
How it was run: as §1

NCI-H2342 = system: NCI-H2342
How it was run: as §1

NCI-H2170 = system: NCI-H2170
How it was run: as §1

NCI-H1915 = system: NCI-H1915
How it was run: as §1

NCI-H1734 = system: NCI-H1734
How it was run: as §1

SK-LU-1 = system: SK-LU-1
How it was run: as §1

LC-2-ad = system: LC-2-ad
How it was run: as §1

NCI-H1355 = system: NCI-H1355
How it was run: as §1

A-427 = system: A-427
How it was run: as §1

`Cc1csc(=NC2CCCCC2)n1/N=C/c1ccc(O)c(O)c1O` [MIM1] + Nc1nc2[nH]cc(CCc3ccc(C(=O)N[C@@H](CCC(=O)O)C(=O)O)cc3)c2c(=O)[nH]1 [Pemetrexed] (partner 0.2 µM) was tested, and the relative viability (UMC-11; first compound 0.2 µM) was 0.721, the relative viability (UMC-11; first compound 0.6325 µM) was 0.848 and the relative viability (UMC-11; first compound 2 µM) was 0.815. The relative viability (UMC-11; first compound 6.325 µM) was 0.739, the relative viability (UMC-11; first compound 20 µM) was 0.369 and the relative viability (NCI-H1755; first compound 0.2 µM) was 0.377. The relative viability (NCI-H1755; first compound 0.6325 µM) was 0.419, the relative viability (NCI-H1755; first compound 2 µM) was 0.41 and the relative viability (NCI-H1755; first compound 6.325 µM) was 0.41. For the same molecule, the relative viability (NCI-H1755; first compound 20 µM) was 0.269, the relative viability (NCI-H2347; first compound 0.2 µM) was 0.465 and the relative viability (NCI-H2347; first compound 0.6325 µM) was 0.422. The relative viability (NCI-H2347; first compound 2 µM) was 0.415, the relative viability (NCI-H2347; first compound 6.325 µM) was 0.421 and the relative viability (NCI-H2347; first compound 20 µM) was 0.399. The relative viability (NCI-H2228; first compound 0.2 µM) was 0.386, the relative viability (NCI-H2228; first compound 0.6325 µM) was 0.345 and the relative viability (NCI-H2228; first compound 2 µM) was 0.347. For the same molecule, the relative viability (NCI-H2228; first compound 6.325 µM) was 0.168, the relative viability (NCI-H2228; first compound 20 µM) was 0.152 and the relative viability (HCC-366; first compound 0.2 µM) was 0.161. The relative viability (HCC-366; first compound 2 µM) was 0.176, the relative viability (HCC-366; first compound 6.325 µM) was 0.152 and the relative viability (HCC-366; first compound 20 µM) was 0.0413. For the same molecule, the relative viability (LCLC-103H; first compound 0.2 µM) was 0.413, the relative viability (LCLC-103H; first compound 0.6325 µM) was 0.499 and the relative viability (LCLC-103H; first compound 2 µM) was 0.456. It also gave a relative viability (LCLC-103H; first compound 6.325 µM) of 0.466, a relative viability (LCLC-103H; first compound 20 µM) of 0.393 and a relative viability (SK-MES-1; first compound 0.2 µM) of 0.962. For the same molecule, the relative viability (SK-MES-1; first compound 0.6325 µM) was 0.907, the relative viability (SK-MES-1; first compound 2 µM) was 0.796 and the relative viability (SK-MES-1; first compound 6.325 µM) was 0.56. For the same molecule, the relative viability (SK-MES-1; first compound 20 µM) was 0.298, the relative viability (NCI-H1792; first compound 0.2 µM) was 0.682 and the relative viability (NCI-H1792; first compound 0.6325 µM) was 0.644. It also gave a relative viability (NCI-H1792; first compound 2 µM) of 1.02, a relative viability (NCI-H1792; first compound 6.325 µM) of 0.716 and a relative viability (NCI-H1792; first compound 20 µM) of 0.685. It also gave a relative viability (NCI-H1993; first compound 0.2 µM) of 0.572, a relative viability (NCI-H1993; first compound 0.6325 µM) of 0.553 and a relative viability (NCI-H1993; first compound 2 µM) of 0.596. For the same molecule, the relative viability (NCI-H1993; first compound 6.325 µM) was 0.481, the relative viability (NCI-H1993; first compound 20 µM) was 0.384 and the relative viability (SW 1573; first compound 0.2 µM) was 0.851. It also gave a relative viability (SW 1573; first compound 0.6325 µM) of 0.93, a relative viability (SW 1573; first compound 2 µM) of 0.877 and a relative viability (SW 1573; first compound 6.325 µM) of 0.791. The relative viability (SW 1573; first compound 20 µM) was 0.18, the relative viability (NCI-H650; first compound 0.2 µM) was 1.07 and the relative viability (NCI-H650; first compound 0.6325 µM) was 1. The relative viability (NCI-H650; first compound 2 µM) was 0.934, the relative viability (NCI-H650; first compound 6.325 µM) was 0.89 and the relative viability (NCI-H650; first compound 20 µM) was 0.282. It also gave a relative viability (NCI-H1975; first compound 0.2 µM) of 0.289, a relative viability (NCI-H1975; first compound 0.6325 µM) of 0.317 and a relative viability (NCI-H1975; first compound 2 µM) of 0.28. For the same molecule, the relative viability (NCI-H1975; first compound 6.325 µM) was 0.223, the relative viability (NCI-H1975; first compound 20 µM) was 0.187 and the relative viability (HCC-827; first compound 0.2 µM) was 0.275. The relative viability (HCC-827; first compound 0.6325 µM) was 0.249, the relative viability (HCC-827; first compound 2 µM) was 0.263 and the relative viability (HCC-827; first compound 6.325 µM) was 0.246. The relative viability (HCC-827; first compound 20 µM) was 0.167, the relative viability (NCI-H23; first compound 0.2 µM) was 0.667 and the relative viability (NCI-H23; first compound 0.6325 µM) was 0.469. It also gave a relative viability (NCI-H23; first compound 2 µM) of 0.717, a relative viability (NCI-H23; first compound 6.325 µM) of 0.5 and a relative viability (NCI-H23; first compound 20 µM) of 0.204. The relative viability (RERF-LC-KJ; first compound 0.2 µM) was 0.47, the relative viability (RERF-LC-KJ; first compound 0.6325 µM) was 0.466 and the relative viability (RERF-LC-KJ; first compound 2 µM) was 0.369. The relative viability (RERF-LC-KJ; first compound 6.325 µM) was 0.361, the relative viability (RERF-LC-KJ; first compound 20 µM) was 0.165 and the relative viability (NCI-H2342; first compound 0.2 µM) was 0.719. For the same molecule, the relative viability (NCI-H2342; first compound 0.6325 µM) was 0.768, the relative viability (NCI-H2342; first compound 2 µM) was 0.75 and the relative viability (NCI-H2342; first compound 6.325 µM) was 0.751. The relative viability (NCI-H2342; first compound 20 µM) was 0.757, the relative viability (NCI-H2170; first compound 0.2 µM) was 0.265 and the relative viability (NCI-H2170; first compound 0.6325 µM) was 0.252. For the same molecule, the relative viability (NCI-H2170; first compound 2 µM) was 0.247, the relative viability (NCI-H2170; first compound 6.325 µM) was 0.254 and the relative viability (NCI-H2170; first compound 20 µM) was 0.215. For the same molecule, the relative viability (NCI-H1915; first compound 0.2 µM) was 0.501, the relative viability (NCI-H1915; first compound 0.6325 µM) was 0.42 and the relative viability (NCI-H1915; first compound 2 µM) was 0.487. For the same molecule, the relative viability (NCI-H1915; first compound 6.325 µM) was 0.329, the relative viability (NCI-H1915; first compound 20 µM) was 0.335 and the relative viability (NCI-H1734; first compound 0.2 µM) was 0.424. It also gave a relative viability (NCI-H1734; first compound 0.6325 µM) of 0.448, a relative viability (NCI-H1734; first compound 2 µM) of 0.478 and a relative viability (NCI-H1734; first compound 6.325 µM) of 0.412. For the same molecule, the relative viability (NCI-H1734; first compound 20 µM) was 0.179, the relative viability (SK-LU-1; first compound 0.2 µM) was 0.995 and the relative viability (SK-LU-1; first compound 0.6325 µM) was 1.09. The relative viability (SK-LU-1; first compound 2 µM) was 0.972, the relative viability (SK-LU-1; first compound 6.325 µM) was 0.892 and the relative viability (SK-LU-1; first compound 20 µM) was 0.694. It also gave a relative viability (LC-2-ad; first compound 0.2 µM) of 0.293, a relative viability (LC-2-ad; first compound 0.6325 µM) of 0.292 and a relative viability (LC-2-ad; first compound 2 µM) of 0.287. It also gave a relative viability (LC-2-ad; first compound 6.325 µM) of 0.268, a relative viability (LC-2-ad; first compound 20 µM) of 0.232 and a relative viability (NCI-H1355; first compound 0.2 µM) of 1.05. For the same molecule, the relative viability (NCI-H1355; first compound 0.6325 µM) was 0.932, the relative viability (NCI-H1355; first compound 2 µM) was 1.07 and the relative viability (NCI-H1355; first compound 6.325 µM) was 0.863. The relative viability (NCI-H1355; first compound 20 µM) was 0.616, the relative viability (A-427; first compound 0.2 µM) was 1.02 and the relative viability (A-427; first compound 0.6325 µM) was 0.947. For the same molecule, the relative viability (A-427; first compound 2 µM) was 0.989, the relative viability (A-427; first compound 6.325 µM) was 0.901 and the relative viability (A-427; first compound 20 µM) was 0.343.
